Usually Kd stands for the equilibrium constant for the complex coming apart. Low readings indicate higher affinity, high ones lower affinity.

Results on eight compounds are retold here after publication PMC5367682, “Fragment library screening identifies hits that bind to the non-catalytic surface of Pseudomonas aeruginosa DsbA1” (PLoS ONE, 2017).

T1 sequence (P0AEG4 20-208): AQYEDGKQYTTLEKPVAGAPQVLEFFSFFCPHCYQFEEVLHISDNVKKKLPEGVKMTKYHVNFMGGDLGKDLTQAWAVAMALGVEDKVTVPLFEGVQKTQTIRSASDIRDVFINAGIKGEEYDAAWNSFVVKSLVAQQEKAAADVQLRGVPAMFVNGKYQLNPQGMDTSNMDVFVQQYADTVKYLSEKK

The first assay addresses T1, EcDsbA (Escherichia coli, UniProt P0AEG4).
T1 construct: gene dsbA; 15N-labelled for HSQC
Nature of the assay: […]-HSQC NMR after STD NMR. In kind it is binding.
The compound `COc1ccc(-c2nc(N)sc2C)cc1` [compound 6, Fragment 6] yielded an equilibrium dissociation constant (Kd) greater than 5000 µM.

In the next assay the target is T2, PaDsbA1 (Pseudomonas aeruginosa, UniProt P0C2B2).
T2 construct: gene dsbA; N-terminal His6 tag cut with TEV; E. coli BL21(DE3) Gold; 15N-labelled for NMR, oxidized; NMR structure residues 3-192
T2 sequence (P0C2B2 22-211): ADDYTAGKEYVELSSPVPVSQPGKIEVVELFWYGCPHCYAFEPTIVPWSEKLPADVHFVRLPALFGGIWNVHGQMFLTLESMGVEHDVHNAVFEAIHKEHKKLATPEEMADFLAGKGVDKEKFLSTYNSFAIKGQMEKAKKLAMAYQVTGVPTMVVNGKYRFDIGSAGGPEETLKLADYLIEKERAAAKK
Nature of the assay: […]-HSQC NMR titration, CSP fitted to one-site model. In kind it is binding.
As for `Cc1ccccc1CSc1nncn1N` [compound 1, Fragment 1], binding was put at a Kd of 900 µM.
The same measure, in the same setting: under `Cc1cc(C(=O)Nc2cccc(O)c2)c(C)o1` [compound 2, Fragment 2] stands 1600 ± 200 µM; under `Oc1nc2ccccc2s1` [compound 3, Fragment 3], 2100 ± 300 µM.
Same read-out and setting: in the case of `Nc1ccc(-c2nc3ccccc3[nH]2)cc1` [compound 4, Fragment 4] it was 2500 ± 400 µM; in that of `NNC(=O)c1cc(C2CC2)n[nH]1` [compound 5, Fragment 5], 2700 ± 700 µM; in that of `COc1ccc(-c2nc(N)sc2C)cc1` [compound 6, Fragment 6], 3900 ± 200 µM.
Same read-out and setting: under `CNCc1ccc(-c2cccc(Cl)c2)o1` [compound 7, Fragment 7] stands 4300 ± 1000 µM; under `Nc1cccc(C(=O)Nc2ccccc2Cl)c1` [compound 8, Fragment 8], 4400 ± 5000 µM.
